For this data set, the system named is rat chronic carcinogenicity bioassay, TD50. Nature of the data set: DSSTox (CPDBAS) Carcinogenic Potency Database Summary Rat Bioassay Results. The note with it: for Potency: hits give low values; for outcome: TD50_Rat_Note: no positive results. Put shortly:
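Chronic long-term rat cancer bioassays from literature and NCI/NTP, taking the most positive result per sex. TD50 in mmol converted to a 1–100 Activity Score from log10(1/TD50). Mixtures lacking TD50 scored 50.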

The mark [1] stands for this setting: TargetSites_Rat_Female: no positive results.
[2] abbreviates: TargetSites_Rat_BothSexes: no positive results.
Setting [3] is: TD50_Rat_Note: TD50 is harmonic mean of more than one positive test, TargetSites_Rat_Female: stomach.

Each structure is given as a SMILES string. Active and inactive are the calls of the source.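 Rule for the calls: active = at least one rat sex group has a carcinogenic potency value and tumor site recorded; inconclusive = only rat studies were judged inadequate by the national testing program; inactive = no potency or tumor site, with negative rat experiments.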

Consider `Nc1ccc(Oc2ccc(Cl)cc2)cc1`, for which the Potency is 37.6 mg/kg/day. For the compound `NC(N)=NC(N)=NCCc1ccccc1`, under setting [1], the outcome is “inactive; no positive results”. For the compound `Nc1ccc(-c2ccc(N)cc2)cc1`, for the setting “TargetSites_Rat_BothSexes: hematopoietic system, liver, mammary gland”, the Potency was 1.73 mg/kg/day. Regarding `Cc1cc(O)c2c(c1)C(=O)c1cc(O)cc(O)c1C2=O`, the outcome under setting [1] was “inactive; no positive results”. Turning to `O=S(=O)(O)NC1CCCCC1`, the outcome under setting [2] was inactive. `CCCCCl`: the outcome under setting [1] was “inactive; no positive results”. With `Cc1ccc(OP(=O)(Oc2ccc(C)cc2)Oc2ccc(C)cc2)cc1`, under setting [1], the outcome was “inactive; no positive results”.

On to `c1ccc2n[nH]nc2c1`, for which the outcome under setting [1] was “inactive; no positive results”. Take `Nc1ccc(N)c2c1C(=O)c1c(N)ccc(N)c1C2=O`: where the note is “TD50_Rat_Note: TD50 is harmonic mean of more than one positive test, TargetSites_Rat_Female: urinary bladder”, the Potency is 156 mg/kg/day. For the compound `CC(=O)Nc1ccc(S(=O)(=O)c2ccc(NC(C)=O)cc2)cc1`, under “TD50_Rat_Note: no positive results are statistically significant, TargetSites_Rat_Female: mammary gland”, the Potency is 55.6 mg/kg/day. As to `C=CC1=C(C)C2=CC3=NC(=C(CC(=O)[O-])C4=NC(=C(C)C4=C([O-])[O-])C=c4[n-]c(c(C)c4CC)=CC1=N2)[C@@H](CCC(=O)[O-])[C@@H]3C.[Cu+2].[Na+].[Na+].[Na+]`, the outcome under setting [1] was “inactive; no positive results”.

On to `IC(I)I`, for which the outcome under setting [1] is “inactive; no positive results”. Still for that read-out and setting: in the case of `COC1[C@@H](O[C@@H]2O[C@H](C)[C@@H](O[C@H]3C[C@@](C)(O)[C@H](OC(=O)CC(C)C)[C@H](C)O3)[C@H](N(C)C)[C@H]2O)[C@@H](CC=O)C[C@@H](C)[C@@H](O)/C=C/C=C/C[C@@H](C)OC(=O)C[C@H]1OC(C)=O` (stereo partly specified) it was “inactive; no positive results”; in that of `CC(=O)Nc1cccc2c1Cc1ccccc1-2`, “inactive”. Take `O=[N+]([O-])c1ccc(-c2nc(N(CCO)CCO)c3ccccc3n2)s1`: the Potency was 3.14 mg/kg/day. On the same count and under the same terms, in the case of `C/C=C/C=O` it was 4.2 mg/kg/day. `Nc1ccc(N=Nc2ccccc2)c(N)n1`: the Potency (TD50_Rat_Note: TD50 is harmonic mean of more than one positive test, TargetSites_Rat_Female: large intestine) is 303 mg/kg/day. For the compound `C#C[C@]1(O)CC[C@H]2[C@@H]3CCc4cc(O)ccc4[C@H]3CC[C@@]21C`, the Potency (TargetSites_Rat_Female: liver) was 0.2 mg/kg/day. With `O=NN(CCO)CCO`, the Potency (TD50_Rat_Note: TD50 is harmonic mean of more than one positive test, greater than ten-fold variation among TD50 values for positive res, TargetSites_Rat_Female: esophagus, kidney, liver, nasal cavity) was 3.17 mg/kg/day. As for `C=CCOCC1CO1` (stereo unspecified), the outcome under setting [1] is “inactive; no positive results”. As for `FCC(F)(F)F`, under setting [1], the Potency is 29900 mg/kg/day.

With `c1ccncc1`, the Potency under setting [1] was 67.3 mg/kg/day. Turning to `CC(=O)C(N=Nc1ccc(Cl)cc1Cl)C(=O)Nc1ccc(-c2ccc(NC(=O)C(N=Nc3ccc(Cl)cc3Cl)C(C)=O)c(C)c2)cc1C` (stereo unspecified), the outcome under setting [2] was inactive. As for `C[C@@H]1CC2(O[C@@H]2C)C(=O)O[C@@H]2CCN(C)C/C=C(/COC(=O)[C@]1(C)O)C2=O` (stereo partly specified), the Potency (TD50_Rat_Note: TD50 is harmonic mean of more than one positive test, TargetSites_Rat_Female: liver, vascular system) was 0.922 mg/kg/day. `C=CCl`: the Potency (TD50_Rat_Note: TD50 is harmonic mean of more than one positive test, greater than ten-fold variation among TD50 values for positive res, TargetSites_Rat_Female: ear Zymbals gland, kidney, liver, mammary gland, nasal cavity, nervous system, vascular system) is 6.11 mg/kg/day.

Consider `CCCCN(CCCCO)N=O`, for which the Potency (TD50_Rat_Note: TD50 is harmonic mean of more than one positive test, harmonic mean of TD50 includes a value for upper 99% confidence li, TargetSites_Rat_Female: urinary bladder) was 0.457 mg/kg/day. For `CCC(C)[N+](=O)[O-]` (stereo unspecified), the Potency is 2.86 mg/kg/day. Regarding `Cc1ccc(S(=O)(=O)Oc2ccc(N=Nc3ccc(-c4ccc(N=Nc5c(O)ccc6cc(S(=O)(=O)O)cc(S(=O)(=O)O)c56)c(C)c4)cc3C)cc2)cc1`, the Potency (TD50_Rat_Note: TD50 is harmonic mean of more than one positive test, TargetSites_Rat_Female: clitoral gland, ear Zymbals gland, large intestine, liver, lung, oral cavity, skin, small intestine) is 3.89 mg/kg/day. As for `Nc1ccccc1-c1ccccc1`, the outcome under setting [1] was “inactive; no positive results”. Same read-out and setting: in the case of `COc1cc(/C=C/C(=O)O[C@H]2CC[C@]34C[C@]35CC[C@]3(C)[C@@H]([C@H](C)CCC=C(C)C)CC[C@@]3(C)[C@@H]5CC[C@H]4C2(C)C)ccc1O` it was “inactive; no positive results”; in that of `Clc1ccccc1Cl`, “inactive; no positive results”; in that of `C[C@H](CCC(=O)O)[C@H]1CC[C@H]2[C@@H]3CC[C@@H]4C[C@H](O)CC[C@]4(C)[C@H]3CC[C@]12C`, “inactive; no positive results”. Turning to `C=C1C/C(=C/C)C(=O)O[C@@H]2CCN3CC=C(COC(=O)[C@@]1(O)CO)[C@H]23`, the Potency (TD50_Rat_Note: TD50 is harmonic mean of more than one positive test, TargetSites_Rat_Female: hematopoietic system, liver, vascular system) was 0.119 mg/kg/day. In the case of `Nc1cc([N+](=O)[O-])ccc1O`, the Potency under setting [1] was 839 mg/kg/day. With `CC(C(O)c1ccccc1)N(C)N=O` (stereo unspecified), the Potency was 95.2 mg/kg/day. As for `NCCCCCC(=O)O`, the outcome was “inactive; no positive results”.

Consider `NC(=S)C(N)=S`, for which the result under setting [1] was inactive. Turning to `OCCN(CCO)c1nc(-c2cccs2)nc2ccccc12`, the outcome under setting [1] was inactive. In the case of `NC(=S)NNC(N)=S`, under setting [1], the outcome was “inactive; no positive results”. Turning to `CC1CN(N=O)CC(C)N1C` (stereo unspecified), the Potency (TargetSites_Rat_Female: nasal cavity) was 0.151 mg/kg/day.

Turning to `Cc1cccc(C)c1NC1=NCCCS1`, the outcome is “inactive; no positive results”.

Regarding `CC(C)(CO)CCCCCCC(C)(C)CO`, under setting [1], the outcome is “inactive; no positive results”. In the case of `NS(=O)(=O)c1cc2c(cc1Cl)NCNS2(=O)=O`, under setting [1], the outcome was “inactive; no positive results”. The same measure, in the same setting: in the case of `CCN(CC)CCCNC(=O)Cn1ncc(-c2ccccc2)c1-c1ccccc1` it was “inactive; no positive results”. On to `CC1=CC(C)(C)N(N=O)c2ccccc21`, for which the Potency (TD50_Rat_Note: positive test results only by intraperitoneal or intravenous injection, TD50_Rat_mmol was not calculated for this mixtur) is 3.31 mg/kg/day. For `OC(c1ccc(Cl)cc1)(c1ccc(Cl)cc1)C(Cl)(Cl)Cl`, the outcome under setting [1] was “inactive; no positive results”. In the case of `Cc1ccc(Cc2cnc(NCCSCc3ccc(CN(C)C)o3)[nH]c2=O)cn1`, the Potency under setting [3] was 3360 mg/kg/day. As for `Nc1nnc(-c2ccc([N+](=O)[O-])o2)o1`, under “TargetSites_Rat_Female: kidney, lung, mammary gland, stomach”, the Potency was 3.67 mg/kg/day. `CC(=O)OCc1ccccc1`: under setting [1], the outcome was “inactive; no positive results”. Turning to `CC(=O)Nc1ccc(N=Nc2cc(C)ccc2O)cc1`, under setting [1], the Potency is 380 mg/kg/day. Consider `O=P1(N(CCCl)CCCl)NCCCO1` (stereo unspecified), for which the Potency (TD50_Rat_Note: TD50 is harmonic mean of more than one positive test, greater than ten-fold variation among TD50 values for positive res, TargetSites_Rat_Female: all tumor bearing animals, TargetSites_Rat_BothSexes: hematopoietic system, nervous system, urinary bladder) was 2.21 mg/kg/day.

Turning to `CC(C)(C)c1cc(CO)cc(C(C)(C)C)c1O`, the outcome under setting [1] is “inactive; no positive results”. Turning to `O.O.O.O.O.O.O.O=S(=O)([O-])[O-].[Co+2]`, the Potency (TD50_Rat_Note: TD50 is harmonic mean of more than one positive test, TargetSites_Rat_Female: adrenal gland, lung) is 0.137 mg/kg/day.

Regarding `COC(C)(C)C`, the Potency (TD50_Rat_Note: TD50 is harmonic mean of more than one positive test, TargetSites_Rat_Female: hematopoietic system) is 702 mg/kg/day. As for `O=NN(CCO)CC(O)CO` (stereo unspecified), the Potency (TargetSites_Rat_Female: liver) is 5.98 mg/kg/day. In the case of `O=C1CC(=O)NC(=O)N1`, the outcome is “inactive; no positive results”. On the same count and under the same terms, as for `C[C@@H]1C[C@H]2[C@@H]3CCC4=CC(=O)C=C[C@]4(C)[C@@]3(F)[C@@H](O)C[C@]2(C)[C@@]1(O)C(=O)CO`, the entry is “inactive; no positive results”. Regarding `C=CC=C`, the Potency (TD50_Rat_Note: TD50 is harmonic mean of more than one positive test, greater than ten-fold variation among TD50 values for positive res, TargetSites_Rat_Female: mammary gland) was 261 mg/kg/day.

In the case of `ClC(Cl)C(Cl)Cl`, the outcome under setting [1] was “inactive; no positive results”.

As for `Nc1ccccc1C(=O)OC/C=C/c1ccccc1`, the Potency under setting [1] was 12100 mg/kg/day.

Regarding `CCN(N=O)C(=O)NCCO`, where the note is “TD50_Rat_Note: TD50 is harmonic mean of more than one positive test, TargetSites_Rat_Female: mammary gland, skin, uterus”, the Potency is 0.522 mg/kg/day. Turning to `CC1=C(C(=O)OC(C)C)C(c2cccc([N+](=O)[O-])c2)C(C(=O)OC2CN(C(c3ccccc3)c3ccccc3)C2)=C(N)N1` (stereo unspecified), the outcome under setting [1] was “inactive; no positive results”. As to `S=C(NC1CCCCC1)NC1CCCCC1`, under setting [1], the outcome is “inactive; no positive results”. Still for that read-out and setting: in the case of `CCCCCCOc1cc(C)c(O)c(C)c1C` it was “inactive”. As for `O=S(=O)([O-])[O-].[Cd+2]`, the Potency (TD50_Rat_Note: TD50 is harmonic mean of more than one positive test, TargetSites_Rat_Female: lung) is 0.0217 mg/kg/day. In the case of `CN(CCCC(O)c1cccnc1)N=O` (stereo unspecified), the Potency was 0.103 mg/kg/day. As to `CCOC(=O)/C=C\C(=O)OCC`, the outcome is “inactive; no positive results”. Turning to `Clc1ccccc1`, under setting [1], the Potency was 247 mg/kg/day.

In the case of `CCc1ccccc1`, the Potency (TD50_Rat_Note: TD50 is harmonic mean of more than one positive test, greater than ten-fold variation among TD50 values for positive res, TargetSites_Rat_Female: Maltoni head cancers, kidney) is 72.6 mg/kg/day. For `O=[N+]([O-])c1ccccc1`, the Potency (TD50_Rat_Note: TD50 is harmonic mean of more than one positive test, TargetSites_Rat_Female: liver, uterus) was 25.5 mg/kg/day. `CC1=C(C(=O)OCCN(Cc2ccccc2)c2ccccc2)C(c2cccc([N+](=O)[O-])c2)C(P2(=O)OCC(C)(C)CO2)=C(C)N1` (stereo unspecified): the outcome under setting [1] is “inactive; no positive results”. In the case of `CC(O)CO` (stereo unspecified), under setting [1], the outcome was “inactive; no positive results”. On to `Oc1ccc2c(c1)OCO2`, for which the Potency under setting [3] is 1350 mg/kg/day. Regarding `C=C(C)[C@H]1CC=C(C)CC1`, the Potency under setting [1] is 204 mg/kg/day. As to `N=c1ccn2c(n1)O[C@H]1[C@H](O)[C@@H](CO)O[C@H]12`, the outcome under setting [1] was “inactive; no positive results”. For `Cc1cc(=O)n(-c2ccccc2)n1C`, the Potency is 1230 mg/kg/day.

The values above are taken from PubChem BioAssay AID1208 (EPA DSSTox, 2008).
